Laboratory results as given in patent publication US20040192553A1, “Inosine L-Arginine salt and uses thereof” (priority 2001, published 2004).

Key:
[1] = Test of velocity of dissolution; assay type: physicochemical; conditions: 1.2 mmol added to 10 mL of water with stirring at room temperature
Method: Test of Velocity of Dissolution
Each of the following was added to separate containers containing 10 mL of water with stirring at room temperature: (a) a mixture (0.53 g) of 1.2 mmol of inosine and 1.2 mmol of L-arginine, (b) 1.2 mmol (0.53 g) of the inosine. L-arginine salt obtained in Example 1, and (3) 1.2 mmol (0.32 g) of inosine. The time period for complete dissolution was measured for each. The equimolar mixture of inosine and L-arginine required 50 seconds for complete dissolution. On the other hand, inosine. […] L-arginine salt were confirmed.

[2] = system: Lawn seedlings (Western lawn: bent grass); assay: Plant growth promoting effect, hydroponic culture of lawn seedlings; assay type: in vivo; conditions: hydroponics in HYPONEX diluted 2,000-fold, inosine concentration 20 ppm, after a month of culturing
Method: Plant Growth Promoting Effect
Lawn seedlings (Western lawn: bent grass) were raised and divided into two groups each containing 30 plants. Hydroponics were performed as follows. Both the control group and the inosine. L-arginine salt group were cultured using HYPONEX, diluted by a facter of 2,000. The HYPONEX diluted by a facter of 2000 alone was used as culture fluid for the control group. Inosine- L-arginine salt was added to the culture fluid to an inosine concentration of 20 ppm.
After a month of culturing, the average plant length, the average root length, the number of leaves for 30 plants, the number of branching of a stem for 30 plants, the weight for 30 plants, and the dried weight for 30 plants were measured for each group. From the Table, the effectiveness of inosine. L-arginine salt was confirmed.

[3] = at normal temperatures; cited from earlier work

Structure (SMILES)	time period for complete dissolution [1]	Dried weight per 30 plants [2]	Number of branching per 30 plants [2]	Number of leaves per 30 plants [2]	Weight per 30 plants [2]	Average plant length ([2]; 30 plants)	Average root length ([2]; 30 plants)	solubility in water [3]
N=C(N)NCCC[C@H](N)C(=O)O.OC[C@H]1O[C@@H](n2cnc3c(O)ncnc32)[C@H](O)[C@@H]1O [inosine · L-arginine salt, inosine. L-arginine salt]	dissolved immediately	0.0434 g	37	102	0.13 g	6.0 cm	5.0 cm	–
OC[C@H]1O[C@@H](n2cnc3c(O)ncnc32)[C@H](O)[C@@H]1O [inosine]	did not completely dissolve	–	–	–	–	–	–	about 1.6%
